Measurements published in PubChem BioAssay AID206 (DTP/NCI, 2004).
Results filed as inconclusive are left out.

Test system: nude mice, HT29 intrarenal xenograft, tumor weight T/C
Test: NCI In Vivo Anticancer Drug Screen. Data for tumor model HT29;CX-1 Human Adenocarcinoma (MER+) (intrarenal inoculation) in NU/NU Swiss (nude) mice
Details: endpoint: mean tumor weight change, higher = larger tumour
Procedure, shortened: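 Tumor-bearing mice received test compound or vehicle, and tumor size or survival was recorded. Values are the treated-group measurement divided by the vehicle-treated control measurement.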

[1] = dose: 300.0 mg/kg/injection, schedule: Q04DX004 (sc), vehicle: saline with Tween-80
[2] = dose: 600.0 mg/kg/injection, schedule: Q04DX004 (sc), vehicle: saline with Tween-80
[3] = dose: 1200.0 mg/kg/injection, schedule: Q04DX004 (sc), vehicle: saline with Tween-80
[4] = dose: 300.0 mg/kg/injection, schedule: Q04DX004 (sc), vehicle: saline
[5] = dose: 600.0 mg/kg/injection, schedule: Q04DX004 (sc), vehicle: saline

COc1cc2cc3cc4cc(OC)c(OC)cc4c(C)[n+]3cc2cc1OC (tested in a mixture with another compound)
T/C (dose: 200.0 mg/kg/injection, schedule: Q04DX004 (sc), vehicle: suspension in saline): 118 % of control
T/C (dose: 400.0 mg/kg/injection, schedule: Q04DX004 (sc), vehicle: suspension in saline): 80 % of control
T/C (dose: 800.0 mg/kg/injection, schedule: Q04DX004 (sc), vehicle: suspension in saline): 98 % of control

C[C@H](N)C(=O)N[C@@H]1[C@H]2C(=C(O)C[C@@H](O)[C@@H]2O)C(=O)O[C@]1(C)C(Cl)Cl
T/C (dose: 1.5 mg/kg/injection, schedule: Q04DX004 (sc), vehicle: Klucel (hydroxypropylcellulose) (HPC)): 33 % of control

COC(=O)C[C@](O)(CCCC(C)(C)O)C(=O)O[C@@H]1C(OC)=C[C@]23CCCN2CCc2cc4c(cc2[C@H]13)OCO4
T/C (dose: 0.5 mg/kg/injection, schedule: Q01DX010 (sc), vehicle: saline): 41 % of control

N#CN=[N+]([O-])c1ccc(C(=O)O)cc1
T/C (dose: 45.0 mg/kg/injection, schedule: Q04DX004 (sc), vehicle: Klucel (hydroxypropylcellulose) (HPC)): 60 % of control

NC(=O)CC(N)C(=O)O (configuration not stated)
T/C (dose: 400.0 mg/kg/injection, schedule: Q04DX004 (sc), vehicle: saline): 151 % of control
T/C (dose: 800.0 mg/kg/injection, schedule: Q04DX004 (sc), vehicle: saline): 119 % of control
T/C (dose: 3200.0 mg/kg/injection, schedule: Q04DX004 (sc), vehicle: saline): 90 % of control

OCC1OC(n2cnc3cc(Cl)c(Cl)cc32)C(O)C1O (configuration not stated)
T/C [1]: 111 % of control
T/C [2]: 60 % of control
T/C [3]: 122 % of control

O=c1[nH]c(=O)n([C@H]2CCCO2)cc1F
T/C (dose: 100.0 mg/kg/injection, schedule: Q01DX010 (sc), vehicle: Klucel (hydroxypropylcellulose) (HPC)): 55 % of control
T/C (dose: 200.0 mg/kg/injection, schedule: Q01DX010 (sc), vehicle: Klucel (hydroxypropylcellulose) (HPC)): 103 % of control

CC(=O)[O][Pb]([O]C(C)=O)([c]1ccccc1)[c]1ccccc1
T/C (dose: 250.0 mg/kg/injection, schedule: Q04DX004 (sc), vehicle: Klucel (hydroxypropylcellulose) (HPC)): 120 % of control
T/C (dose: 500.0 mg/kg/injection, schedule: Q04DX004 (sc), vehicle: Klucel (hydroxypropylcellulose) (HPC)): 64 % of control
T/C (dose: 1000.0 mg/kg/injection, schedule: Q04DX004 (sc), vehicle: Klucel (hydroxypropylcellulose) (HPC)): 44 % of control
T/C (dose: 2000.0 mg/kg/injection, schedule: Q04DX004 (sc), vehicle: Klucel (hydroxypropylcellulose) (HPC)): 118 % of control

O=CC(=O)c1ccc(O)cc1
T/C (dose: 150.0 mg/kg/injection, schedule: Q04DX004 (sc), vehicle: saline): 73 % of control
T/C [4]: 67 % of control
T/C [5]: 56 % of control

C/C(=N/NC(N)=S)c1ccc2ccccc2c1
T/C (dose: 12.5 mg/kg/injection, schedule: Q01DX010 (sc), vehicle: saline with Tween-80): 177 % of control
T/C (dose: 25.0 mg/kg/injection, schedule: Q01DX010 (sc), vehicle: saline with Tween-80): 70 % of control
T/C (dose: 50.0 mg/kg/injection, schedule: Q01DX010 (sc), vehicle: saline with Tween-80): 57 % of control
T/C (dose: 100.0 mg/kg/injection, schedule: Q01DX010 (sc), vehicle: saline with Tween-80): 89 % of control

CC1=C[S+](c2ccccc2)c2cccc3cc4ccccc4c1c23 (configuration not stated)
T/C (dose: 8.0 mg/kg/injection, schedule: Q04DX004 (sc), vehicle: saline with Tween-80): 45 % of control
T/C (dose: 16.0 mg/kg/injection, schedule: Q04DX004 (sc), vehicle: saline with Tween-80): 66 % of control

COc1ccc2c(c1)CCn1c(C)c(COC(=O)NC(C)C)c(COC(=O)NC(C)C)c1-2
T/C (dose: 300.0 mg/kg/injection, schedule: Q04DX004 (sc), vehicle: distilled water + Tween-80): 165 % of control
T/C (dose: 600.0 mg/kg/injection, schedule: Q04DX004 (sc), vehicle: distilled water + Tween-80): 191 % of control

NCCCC(N)(C(=O)O)C(F)F (configuration not stated)
T/C (dose: 300.0 mg/kg/injection, schedule: Q04DX004 (sc), vehicle: distilled water + alcohol): 240 % of control
T/C (dose: 600.0 mg/kg/injection, schedule: Q04DX004 (sc), vehicle: distilled water + alcohol): 169 % of control
T/C (dose: 1200.0 mg/kg/injection, schedule: Q04DX004 (sc), vehicle: distilled water + alcohol): 75 % of control

OCC1OC(n2cnc3c(Cl)ncnc32)C(O)C1O (configuration not stated)
T/C [4]: 94 % of control
T/C [5]: 84 % of control
T/C (dose: 1200.0 mg/kg/injection, schedule: Q04DX004 (sc), vehicle: saline): 150 % of control

O=Cc1ccc(O)c(O)c1
T/C [1]: 86 % of control
T/C [2]: 58 % of control
T/C [3]: 100 % of control

CO[C@@H]1[C@H](O)CC[C@]2(CO2)[C@H]1[C@@]1(C)O[C@@H]1CC=C(C)C
T/C (dose: 75.0 mg/kg/injection, schedule: Q04DX004 (sc), vehicle: saline with Tween-80): 108 % of control
T/C (dose: 150.0 mg/kg/injection, schedule: Q04DX004 (sc), vehicle: saline with Tween-80): 179 % of control
T/C [1]: 108 % of control
T/C [2]: 110 % of control
